Results published in patent US20140186294A1, “PHAGOCYTIC ACTIVITY AS A MARKER OF SYNUCLEINOPATHIC DISEASE” (ELAN PHARMACEUTICALS, INC., priority 2010, published 2014).
One block for each molecule: values may come before it.

How the values were obtained:
microglia [1] = test: Flow cytometry phagocytosis assay with strepavidin or biotin beads; assay type: cell-based; settings: 30 minutes pretreatment, beads 90 minutes
Procedure: Phagocytosis assay: 6 μm strepavidin beads or 5.2 μm biotin beads were added to microglia for 90 minutes. Cells were moved to ice and stained with either a biotin or strepavidin labeled antibodies to identify un-ingested beads. To confirm the ability to identify intra-verses extracellular bound beads by flow cytometry microglia were treated with Cytochalasin D for 30 minutes prior to the addition of beads.

[2] = system: synuclein overexpressing cells; test: Phagocytosis after INFγ overnight, synuclein overexpressing microglia; assay type: cell-based, mouse; settings: beads 90 minutes
Text: (§1) To test a more physiologic system in which altered activation of LRRK2 and elevated synuclein may occur, we tested the effect of INFγ treatment on phagocytosis in wild type and synuclein-overexpressing microglia. As described above INFγ treatment naturally raises LRRK2 levels as well as increased LRRK2 phosphorylation and activity. Using our line 3 heterozygote X heterozygote crosses (generating homozygous alpha synuclein mice) in which, by culturing each pup separately wild type and synuclein overexpressing littermate cultures are generated. Microglia isolated from the various pups were exposed to INFγ overnight and which point […] beads were added for 90 minutes and phagocytosis was assessed while we were still blinded to the genotype of each culture. […] The ability of the environment to impact these pathways may help explain the incomplete penetrance and onset of Parkinson's symptoms observed with various familial forms of PD.

LRRK2 [3] = test: LRRK2 mRNA, protein and kinase activity in INF-γ treated microglia; assay type: cell-based; settings: INF-γ treatment of microglia
Text: FIG. 16: INF-γ treatment of microglia induced LRRK2 mRNA transcript levels and protein levels by about 2 fold.
We have tested the effect of LRRK2 kinase inhibitors on phagocytosis in cells transformed with LRRK2 G2019S. We have a number of compounds known to inhibit LRRK2 kinase activity. Some of these compounds have enantiomers that are known inhibitors of either cFMS or PLK2 inhibitors but have minimal effect on LRRK2. Pairs of enantiomers one of which is known inhibitor of LRRK2 and one of which inhibits cFMS or PLK2 without substantially effect on LRRK2 can be used to measure LRRK2-specific effects on phagocytosis.

wild type microglia = test: Phagocytosis after INFγ overnight, wild type littermate microglia; assay type: cell-based, mouse; settings: beads 90 minutes
Text: as §1

microglia [4] = test: Phagocytosis of 10 micron beads by INFγ treated microglia, with or without LRRK2 inhibitors; assay type: cell-based; settings: INFγ 24 hr
H4 cells = test: Bead phagocytosis in H4 cells with tetracycline inducible synuclein transfected with Rab proteins; assay type: cell-based, human; settings: synuclein overexpressing H4 cells (tetracycline 48 hours), 4 μM beads 90 minutes
Procedure: FIG. 11: Rabs proteins were transfected into a stable H4 cells containing a tetracycline inducible synuclein construct. Cells were treated or untreated with tetracycline for 48 hours and then fed 4 μM beads for 90 minutes and a phagocytic index calculated.
In quantifying phagocytosis in cells overexpressing synuclein we noticed that synuclein translocates to the phagocytic cup and localized with regions of active actin rearrangement. Under resting conditions synuclein resides in the cytoplasm and following 45 and 90 minutes of bead addition synuclein translocates to sites of actin polymerization and bead contact. SNARE complexes are composed of three components, a SNAP, a syntaxin, and a VAMP protein. These three proteins come together and prime vesicles for fusion with the plasma membrane. On fusion vesicles release their contents and SNARE complexes are disassembled by two adaptor proteins, NSF and α-SNAP. Some members from these dissociated complexes recycle back to the cytoplasm via recycling endosomes and can be used to prime subsequent fusion events. All three protein members of the SNARE complex are alpha helices and on assembly form an energy favorable, very unique SDS stable complex. Although these complexes resist SDS dissociation they will dissociate following boiling. Therefore one SNARE complexes can be flowed as SDS stable complexes in boiled and unboiled lysates. We hypothesized that defective vesicle mobilization may be associated with or due to altered SNARE complex formation of SNARE complex. H4 cells transfected with synuclein were fed beads for 15, 45, or 90 minutes, samples were lysed and run on western formation. […] Alterations in SNARE complexes were also observed in microglia isolated from synuclein genomic mice (data not shown). To elucidate how synuclein alters vesicle trafficking and SNARE complex formation/function we assessed interaction of synuclein with components of the SNARE family. […] To test the possibility that molecules which facilitate vesicle movement could overcome the ability of elevated levels of synuclein to block phagocytosis, a stable H4 cell line overexpressing synuclein was transfected with various Rab proteins. We verified that the Rab proteins were overexpressed and phagocytosis was assessed in wild type and synuclein over expressing cells.

LRRK2 [5] = test: LRRK2 phosphorylation in stimulated murine microglia (PT1967 P-LRRK2 antibody); assay type: cell-based, mouse; settings: primary microglia stimulated for various times
Procedure: Although neurons express LRRK2, this expression appears to be low relative to that of B-cells and macrophages. […] For example, murine microglia were stimulated with MCSF for various times or […] beads for 30 minutes. LRRK2 phosphorylation was probed with PT1967 P-LRRK2 antibody.

Molecule: C=C1[C@@H](C)[C@H]2[C@H](Cc3ccccc3)NC(=O)[C@]23[C@H](OC(C)=O)/C=C/[C@@](C)(O)C(=O)[C@@H](C)C/C=C/[C@H]3[C@@H]1O [Cytochalasin D]
phagocytosis of 5 and 6 micron beads (microglia [1]): blocked this phagocytosis

induction of LRRK2 mRNA transcript levels (LRRK2 [3]): about 2 fold
induction of LRRK2 protein levels (LRRK2 [3]): about 2 fold
Molecule: INFγ: interferon gamma, described as agonist of LRRK2
phagocytosis [2]: even further reduction in phagocytosis
phagocytosis (wild type microglia): enhanced phagocytosis
phagocytosis of 10 micron beads (microglia [4]): increased phagocytosis

B1: Rab3b: Rab protein (Swiss Prot P20337) overexpressed by transfection in H4 cells (protein, UniProt P20337 2-219, looked up)
Ras-related protein Rab-3B: ASVTDGKTGVKDASDQNFDYMFKLLIIGNSSVGKTSFLFRYADDTFTPAFVSTVGIDFKVKTVYRHEKRVKLQIWDTAGQERYRTITTAYYRGAMGFILMYDITNEESFNAVQDWATQIKTYSWDNAQVILVGNKCDMEEERVVPTEKGQLLAEQLGFDFFEASAKENISVRQAFERLVDAICDKMSDSLDTDPSMLGSSKNTRLSDTPPLLQQNCSC
phagocytosis (phagocytic index) (H4 cells): rescued synuclein modulation of phagocytosis
phagocytosis (phagocytic index) (H4 cells; listed as Rab3B): restored phagocytosis

B2: INFγ: interferon gamma, described as agonist of LRRK2 (protein, UniProt P01579 24-161, looked up)
Interferon gamma: QDPYVKEAENLKKYFNAGHSDVADNGTLFLGILKNWKEESDRKIMQSQIVSFYFKLFKNFKDDQSIQKSVETIKEDMNVKFFNSNKKKRDDFEKLTNYSVTDLNVQRKAIHELIQVMAELSPAAKTGKRKRSQMLFRG
LRRK2 kinase activity (LRRK2 phosphorylation, LRRK-tide phosphorylation assay) (LRRK2 [3]): apparent increase in LRRK2 kinase activity

B3: MCSF: stimulus that engages the actin cytoskeleton, used on murine microglia (protein, UniProt P07141 33-552, looked up)
Macrophage colony-stimulating …: KEVSEHCSHMIGNGHLKVLQQLIDSQMETSCQIAFEFVDQEQLDDPVCYLKKAFFLVQDIIDETMRFKDNTPNANATERLQELSNNLNSCFTKDYEEQNKACVRTFHETPLQLLEKIKNFFNETKNLLEKDWNIFTKNCNNSFAKCSSRDVVTKPDCNCLYPKATPSSDPASASPHQPPAPSMAPLAGLAWDDSQRTEGSSLLPSELPLRIEDPGSAKQRPPRSTCQTLESTEQPNHGDRLTEDSQPHPSAGGPVPGVEDILESSLGTNWVLEEASGEASEGFLTQEAKFSPSTPVGGSIQAETDRPRALSASPFPKSTEDQKPVDITDRPLTEVNPMRPIGQTQNNTPEKTDGTSTLREDHQEPGSPHIATPNPQRVSNSATPVAQLLLPKSHSWGIVLPLGELEGKRSTRDRRSPAELEGGSASEGAARPVARFNSIPLTDTGHVEQHEGSSDPQIPESVFHLLVPGIILVLLTVGGLLFYKWKWRSHRDPQTLDSSVGRPEDSSLTQDEDRQVELPV
LRRK2 phosphorylation (LRRK2 [5]): can be enhanced

B4: Rab11b: Rab protein (Swiss Prot Q15907) overexpressed by transfection in H4 cells (protein, UniProt Q15907 2-215, looked up)
Ras-related protein Rab-11B: GTRDDEYDYLFKVVLIGDSGVGKSNLLSRFTRNEFNLESKSTIGVEFATRSIQVDGKTIKAQIWDTAGQERYRAITSAYYRGAVGALLVYDIAKHLTYENVERWLKELRDHADSNIVIMLVGNKSDLRHLRAVPTDEARAFAEKNNLSFIETSALDSTNVEEAFKNILTEIYRIVSQKQIADRAAHDESPGNNVVDISVPPTTDGQKPNKLQCC
phagocytosis (phagocytic index) (H4 cells): rescued synuclein modulation of phagocytosis
phagocytosis (phagocytic index) (H4 cells; listed as Rab11B): restored phagocytosis
